Data reported in ChEMBL document CHEMBL3751834, “Insight to the binding mode of triazole RGD-peptidomimetics to integrin-rich cancer cells by NMR and molecular modeling” (Bioorg Med Chem, 2016).
Active and inactive are the calls of the source. The rule behind the calls is not given here.

How the values were obtained:
Integrin alpha-V/beta-3 [1] = target: T1, Integrin alpha-V/beta-3 (Homo sapiens, UniProt P05106+P06756); assay: Binding affinity to integrin alphavbeta3 receptor in human ECV304 cells by STD-NMR analysis; assay type: cell-based; conditions: ECV-304
Integrin alpha-V/beta-3 [2] = target: T1, Integrin alpha-V/beta-3; assay: Displacement of 125-I-echistatin from human placental integrin alphavbeta3 receptor incubated for 3 hrs by microplate scintillation counting analysis

Activity (Integrin alpha-V/beta-3 [1]) | IC50 (Integrin alpha-V/beta-3 [2]) [µM] | IC50H (Integrin alpha-V/beta-3 [2]) [µM] | IC50L (Integrin alpha-V/beta-3 [2]) [µM] | Structure (SMILES)
Active | 0.221 |  |  | O=C(O)C[C@H](NC(=O)Cn1cc(CCCNc2ccccn2)nn1)c1ccc(O)cc1
Active |  |  |  | N=C(N)NCCCc1cn(CC(=O)N[C@@H](CC(=O)O)c2ccc(O)cc2)nn1
Active |  |  |  | O=C(O)C[C@H](NC(=O)Cn1cc(CCCNc2nc3ccccc3[nH]2)nn1)c1ccc(O)cc1
Active |  | 0.012 | 1.12 | O=C(O)C[C@H](NC(=O)Cn1cc(CCCNc2nc3ccccc3[nH]2)nn1)c1ccccc1
Active |  | 0.013 | 0.9 | O=C(O)C[C@H](NC(=O)Cn1cc(CCCNc2ccccn2)nn1)c1ccccc1
Active |  |  |  | N=C(N)NCCCc1cn(CC(=O)N[C@@H](CC(=O)O)c2ccccc2)nn1
